Measurements taken from paper PMC7933930, “Development of a small molecule that corrects misfolding and increases secretion of Z α1‐antitrypsin” (EMBO Molecular Medicine, 2021).

What was measured:
Histamine H1 = Histamine H1 (Homo sapiens, UniProt P35367); experiment: Off‐target panel: Histamine H1 (DRX); assay type: cell-based; conditions: Antagonist, read-out: Mean (PXC50) (converted)
Protocol: (§1) GSK716 selectivity and PK properties were profiled in order to investigate the suitability of GSK716 for progression into in vivo studies and the potential for taking it forward as a clinical candidate for testing in humans. Since GSK716 results in loss of inhibitory activity of α1‐antitrypsin, the effect of the compound was assessed on other closely related serpins. […] Furthermore, there were no off‐target effects in a panel of assays considered predictive of known safety liabilities that precluded further development of GSK716 (Table EV1).

[1] = molecular target: L-type Ca channel (CaV1.2) (Homo sapiens, UniProt Q13936); experiment: in vitro; assay type: cell-based
Protocol: as §1

Adrenergic α1B [2] = molecular target: T1, Adrenergic α1B (Homo sapiens, UniProt P35368); experiment: Off‐target panel: Adrenergic α1B; assay type: cell-based
T1 sequence (P35368 whole entry): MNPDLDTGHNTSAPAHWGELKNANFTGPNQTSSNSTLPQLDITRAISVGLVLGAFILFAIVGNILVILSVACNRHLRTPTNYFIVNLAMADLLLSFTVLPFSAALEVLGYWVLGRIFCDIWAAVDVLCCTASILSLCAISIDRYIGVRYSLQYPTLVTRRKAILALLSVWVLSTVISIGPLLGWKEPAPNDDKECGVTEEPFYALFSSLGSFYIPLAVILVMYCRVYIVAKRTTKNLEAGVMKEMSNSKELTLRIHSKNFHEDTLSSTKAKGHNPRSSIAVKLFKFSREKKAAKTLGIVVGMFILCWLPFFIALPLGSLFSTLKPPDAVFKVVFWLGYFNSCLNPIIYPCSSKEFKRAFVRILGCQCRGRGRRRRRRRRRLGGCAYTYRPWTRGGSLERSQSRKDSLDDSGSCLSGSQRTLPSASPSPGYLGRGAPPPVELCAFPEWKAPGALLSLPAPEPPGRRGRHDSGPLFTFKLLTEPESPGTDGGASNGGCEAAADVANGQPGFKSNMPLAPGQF
Protocol: as §1

Muscarinic M1 = molecular target: T2, Muscarinic M1 (Homo sapiens, UniProt P11229); experiment: Off‐target panel: Muscarinic M1; assay type: cell-based
T2 sequence (P11229 1-460): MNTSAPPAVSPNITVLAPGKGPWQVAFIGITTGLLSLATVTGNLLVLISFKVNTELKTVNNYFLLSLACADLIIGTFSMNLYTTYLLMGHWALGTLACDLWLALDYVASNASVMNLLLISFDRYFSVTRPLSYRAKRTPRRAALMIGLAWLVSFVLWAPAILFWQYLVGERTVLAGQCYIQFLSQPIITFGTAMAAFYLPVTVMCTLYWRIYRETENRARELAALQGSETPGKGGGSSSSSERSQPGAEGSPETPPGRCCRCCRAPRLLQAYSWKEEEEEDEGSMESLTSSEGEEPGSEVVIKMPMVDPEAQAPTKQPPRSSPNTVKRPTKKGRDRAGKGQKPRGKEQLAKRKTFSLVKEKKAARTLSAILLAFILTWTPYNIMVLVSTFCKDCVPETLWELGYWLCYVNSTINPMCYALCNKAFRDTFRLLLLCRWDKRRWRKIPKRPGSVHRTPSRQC
Protocol: as §1

Monoamine oxidase A = Monoamine oxidase A (Homo sapiens, UniProt P21397); experiment: Off‐target panel: Monoamine oxidase A; assay type: biochemical; conditions: Inhibition, read-out: Mean (PXC50)
Chain of Monoamine oxidase A (P21397 whole entry): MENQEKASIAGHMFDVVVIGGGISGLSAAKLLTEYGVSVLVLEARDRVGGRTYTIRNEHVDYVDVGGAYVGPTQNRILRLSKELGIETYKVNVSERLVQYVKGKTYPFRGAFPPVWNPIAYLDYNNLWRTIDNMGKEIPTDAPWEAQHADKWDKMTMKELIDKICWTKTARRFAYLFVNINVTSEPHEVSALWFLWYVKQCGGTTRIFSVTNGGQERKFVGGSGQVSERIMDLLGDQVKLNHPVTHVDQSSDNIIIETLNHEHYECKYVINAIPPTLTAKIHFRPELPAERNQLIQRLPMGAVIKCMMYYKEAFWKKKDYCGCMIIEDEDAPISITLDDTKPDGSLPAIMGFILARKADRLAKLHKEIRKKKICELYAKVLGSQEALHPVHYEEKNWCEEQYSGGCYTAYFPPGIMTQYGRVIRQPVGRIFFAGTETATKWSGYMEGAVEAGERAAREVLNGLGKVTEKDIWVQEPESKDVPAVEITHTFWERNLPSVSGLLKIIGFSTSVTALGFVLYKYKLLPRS
Protocol: as §1

Serotonin 5HT2A = Serotonin 5HT2A (Homo sapiens, UniProt P28223); experiment: Off‐target panel: Serotonin 5HT2A; assay type: cell-based
Chain of Serotonin 5HT2A (P28223 whole entry): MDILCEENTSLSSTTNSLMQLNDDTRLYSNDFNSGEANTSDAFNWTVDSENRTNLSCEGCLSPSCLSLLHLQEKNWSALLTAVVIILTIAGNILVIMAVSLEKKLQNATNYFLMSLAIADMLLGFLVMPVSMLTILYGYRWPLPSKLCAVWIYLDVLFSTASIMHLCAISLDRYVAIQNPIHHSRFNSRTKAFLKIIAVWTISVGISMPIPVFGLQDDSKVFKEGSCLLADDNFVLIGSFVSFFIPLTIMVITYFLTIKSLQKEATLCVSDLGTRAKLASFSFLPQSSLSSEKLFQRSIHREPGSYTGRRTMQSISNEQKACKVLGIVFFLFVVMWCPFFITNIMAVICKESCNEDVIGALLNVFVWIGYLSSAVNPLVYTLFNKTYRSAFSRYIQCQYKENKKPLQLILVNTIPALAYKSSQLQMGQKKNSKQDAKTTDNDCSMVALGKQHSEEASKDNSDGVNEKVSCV
Protocol: as §1

Adenosine A2a = Adenosine A2a (Homo sapiens, UniProt P29274); experiment: Off‐target panel: Adenosine A2a; assay type: cell-based; conditions: Agonist, read-out: Mean (PXC50)
Chain of Adenosine A2a (P29274 whole entry): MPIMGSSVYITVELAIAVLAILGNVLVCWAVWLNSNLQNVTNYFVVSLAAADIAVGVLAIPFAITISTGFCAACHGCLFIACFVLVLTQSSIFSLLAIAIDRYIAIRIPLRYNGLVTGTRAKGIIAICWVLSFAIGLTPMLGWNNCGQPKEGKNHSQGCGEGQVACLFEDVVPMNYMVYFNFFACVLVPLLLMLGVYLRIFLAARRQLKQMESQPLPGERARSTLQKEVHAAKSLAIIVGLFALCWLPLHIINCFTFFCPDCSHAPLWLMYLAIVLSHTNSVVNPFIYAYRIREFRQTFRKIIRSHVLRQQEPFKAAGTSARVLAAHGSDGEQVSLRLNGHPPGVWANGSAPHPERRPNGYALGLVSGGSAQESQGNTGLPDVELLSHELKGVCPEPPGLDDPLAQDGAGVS
Protocol: as §1

M and Z α1‐antitrypsin = experiment: Heat‐induced oligomerisation, constant temperature, non‐denaturing PAGE; assay type: biochemical, human; conditions: constant‐temperature experiment, 4 h, 48 to 65°C
Text: Polymerisation of α1‐antitrypsin involves transition through a transient intermediate state known as M*, that is readily populated by the Z variant (Dafforn et al, 1999; Knaupp et al, 2010). The M* conformational ensemble appears to be a distinct species between the native state conformation and that of the final polymer. One of the hallmarks of M* is its recognition by environment‐sensitive fluorescent reporter dyes. Thermal shift assays that make use of the dye SYPRO Orange report the stability of the protein native state against heat‐induced unfolding. […] Native state stability can also be probed by equilibrium unfolding using chemical denaturants, where a peak in bis‐ANS fluorescence corresponds with a maximally populated unfolding intermediate (James & Bottomley, 1998). […] The association of GSK716 induced a marked quenching and blue‐shift of the α1‐antitrypsin intrinsic tryptophan fluorescence spectrum (Fig 4D, inset). The rate of change in fluorescence during association of 10µM GSK716 was proportional to the propensity of α1‐antitrypsin mutants to form polymers in vivo: inert (M), mild (S), moderate (Baghdad) and severe (Z) α1‐antitrypsin (Fig 4D, top and bottom). […]

OPRK1 = OPRK1 (Homo sapiens, UniProt P41145); experiment: Off‐target panel: OPRK1; assay type: cell-based
Chain of OPRK1 (P41145 whole entry, species assumed): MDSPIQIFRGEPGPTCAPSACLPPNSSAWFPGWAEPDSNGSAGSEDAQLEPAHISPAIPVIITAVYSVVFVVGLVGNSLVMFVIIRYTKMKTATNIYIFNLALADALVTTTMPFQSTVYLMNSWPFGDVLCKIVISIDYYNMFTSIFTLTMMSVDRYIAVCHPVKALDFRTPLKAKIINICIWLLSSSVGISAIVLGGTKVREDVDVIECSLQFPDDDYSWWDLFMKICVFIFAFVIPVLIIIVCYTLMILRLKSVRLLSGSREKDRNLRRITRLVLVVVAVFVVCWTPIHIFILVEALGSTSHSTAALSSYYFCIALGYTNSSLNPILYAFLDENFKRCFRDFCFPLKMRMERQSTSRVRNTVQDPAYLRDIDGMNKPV
Protocol: as §1

[3] = molecular target: Aryl hydrocarbon receptor (Homo sapiens, UniProt P35869); experiment: Off‐target panel: Aryl hydrocarbon receptor; assay type: cell-based; conditions: Activator, read-out: Mean (PXC50)
Chain of Aryl hydrocarbon receptor (P35869 11-848, species assumed): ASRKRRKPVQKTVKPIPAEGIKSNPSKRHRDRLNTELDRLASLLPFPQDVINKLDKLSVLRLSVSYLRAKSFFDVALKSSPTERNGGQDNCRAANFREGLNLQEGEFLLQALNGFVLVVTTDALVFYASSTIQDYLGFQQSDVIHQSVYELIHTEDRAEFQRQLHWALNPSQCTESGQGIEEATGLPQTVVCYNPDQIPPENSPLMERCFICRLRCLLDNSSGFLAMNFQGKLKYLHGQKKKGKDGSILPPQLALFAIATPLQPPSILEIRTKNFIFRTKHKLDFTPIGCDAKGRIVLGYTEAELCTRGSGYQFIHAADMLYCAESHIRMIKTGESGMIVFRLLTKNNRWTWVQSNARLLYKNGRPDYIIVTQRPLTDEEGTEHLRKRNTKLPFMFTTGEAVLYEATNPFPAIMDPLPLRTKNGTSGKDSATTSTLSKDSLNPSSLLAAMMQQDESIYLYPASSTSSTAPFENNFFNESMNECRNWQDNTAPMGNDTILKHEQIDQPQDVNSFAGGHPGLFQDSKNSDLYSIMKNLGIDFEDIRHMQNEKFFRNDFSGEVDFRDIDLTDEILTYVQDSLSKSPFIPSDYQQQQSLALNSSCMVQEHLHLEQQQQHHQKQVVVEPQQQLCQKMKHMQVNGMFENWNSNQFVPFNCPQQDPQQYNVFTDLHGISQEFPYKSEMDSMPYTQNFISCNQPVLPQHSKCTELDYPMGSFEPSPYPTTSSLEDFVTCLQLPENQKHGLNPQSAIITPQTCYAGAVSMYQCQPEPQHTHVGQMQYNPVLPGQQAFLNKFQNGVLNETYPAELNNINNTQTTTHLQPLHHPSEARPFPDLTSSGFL
Protocol: as §1

Adrenergic α1B [4] = molecular target: T1, Adrenergic α1B; experiment: Off‐target panel: Adrenergic α1B (DRX); assay type: cell-based
Protocol: as §1

Dopamine D1 = Dopamine D1 (Homo sapiens, UniProt P21728); experiment: Off‐target panel: Dopamine D1 (DRX); assay type: cell-based
Chain of Dopamine D1 (P21728 whole entry): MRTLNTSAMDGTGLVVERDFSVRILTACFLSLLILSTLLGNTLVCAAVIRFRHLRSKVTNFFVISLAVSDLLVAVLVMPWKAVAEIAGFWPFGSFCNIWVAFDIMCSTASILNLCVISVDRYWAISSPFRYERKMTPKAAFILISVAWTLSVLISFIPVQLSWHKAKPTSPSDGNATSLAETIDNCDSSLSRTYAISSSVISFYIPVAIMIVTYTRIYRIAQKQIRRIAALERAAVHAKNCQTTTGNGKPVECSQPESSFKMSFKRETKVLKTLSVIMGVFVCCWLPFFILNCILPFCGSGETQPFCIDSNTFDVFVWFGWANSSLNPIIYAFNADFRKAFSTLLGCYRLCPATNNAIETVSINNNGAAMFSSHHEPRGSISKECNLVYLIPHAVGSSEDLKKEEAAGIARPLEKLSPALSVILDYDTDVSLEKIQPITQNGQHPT
Protocol: as §1

Glucocorticoid Receptor = Glucocorticoid Receptor (Homo sapiens, UniProt P04150); experiment: Off‐target panel: Glucocorticoid Receptor; assay type: cell-based; conditions: Agonist, read-out: Mean (PXC50)
Chain of Glucocorticoid Receptor (P04150 whole entry, species assumed): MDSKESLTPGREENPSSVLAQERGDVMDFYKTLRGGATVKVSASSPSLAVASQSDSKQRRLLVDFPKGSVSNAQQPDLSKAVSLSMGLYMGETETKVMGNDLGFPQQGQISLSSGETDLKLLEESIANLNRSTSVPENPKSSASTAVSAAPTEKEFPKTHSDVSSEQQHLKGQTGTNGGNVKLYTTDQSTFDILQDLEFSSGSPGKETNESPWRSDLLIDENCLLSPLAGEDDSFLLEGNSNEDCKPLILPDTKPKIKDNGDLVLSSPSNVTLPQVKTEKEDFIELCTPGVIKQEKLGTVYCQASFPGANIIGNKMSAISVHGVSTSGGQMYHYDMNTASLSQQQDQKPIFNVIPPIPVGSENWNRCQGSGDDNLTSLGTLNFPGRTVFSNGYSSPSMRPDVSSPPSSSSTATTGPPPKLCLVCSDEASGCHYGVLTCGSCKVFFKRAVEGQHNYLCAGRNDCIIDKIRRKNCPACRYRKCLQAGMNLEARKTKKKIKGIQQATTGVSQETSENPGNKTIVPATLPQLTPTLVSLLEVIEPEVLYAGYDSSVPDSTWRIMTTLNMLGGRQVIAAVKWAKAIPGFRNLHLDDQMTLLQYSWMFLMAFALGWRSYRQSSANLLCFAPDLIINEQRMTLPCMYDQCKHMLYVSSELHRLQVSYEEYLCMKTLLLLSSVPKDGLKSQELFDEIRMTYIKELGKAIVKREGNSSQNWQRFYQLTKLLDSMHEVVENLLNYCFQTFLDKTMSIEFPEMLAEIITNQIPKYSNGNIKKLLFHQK
Protocol: as §1

Chain of Histamine H1 (P35367 whole entry): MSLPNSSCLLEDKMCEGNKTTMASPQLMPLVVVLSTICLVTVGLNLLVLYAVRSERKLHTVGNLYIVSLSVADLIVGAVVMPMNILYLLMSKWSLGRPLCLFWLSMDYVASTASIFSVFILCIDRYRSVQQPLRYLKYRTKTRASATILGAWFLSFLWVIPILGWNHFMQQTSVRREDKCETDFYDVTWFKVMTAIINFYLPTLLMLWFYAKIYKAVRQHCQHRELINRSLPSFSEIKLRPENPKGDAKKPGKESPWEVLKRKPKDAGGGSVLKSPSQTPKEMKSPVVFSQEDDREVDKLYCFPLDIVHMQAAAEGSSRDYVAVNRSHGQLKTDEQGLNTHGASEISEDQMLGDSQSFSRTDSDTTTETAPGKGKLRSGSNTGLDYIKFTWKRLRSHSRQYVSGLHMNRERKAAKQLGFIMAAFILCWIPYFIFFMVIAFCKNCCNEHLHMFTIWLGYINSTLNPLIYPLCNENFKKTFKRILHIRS

For CCC[C@@H](NC(=O)c1cccc2c1CC(=O)N2)[C@@H](O)c1cccc(F)c1C [GSK716], the IC50 (Histamine H1) was 10 µM, the IC50 [1] was under 2.14 µM and the IC50 (Adrenergic α1B [2]) was over 25.1 µM. For the same compound, the EC50 (Muscarinic M1) was over 50.1 µM, the IC50 (Muscarinic M1) was over 50.1 µM and the IC50 (Monoamine oxidase A) was over 100 µM. The EC50 (Serotonin 5HT2A) was over 25.1 µM, the IC50 (Serotonin 5HT2A) was over 25.1 µM and the EC50 (Adenosine A2a) was over 100 µM. The “temperature of oligomer generation” value (M and Z α1‐antitrypsin) was “oligomers were generated at higher temperatures in the presence of the compound than in its absence”, the EC50 (OPRK1) was over 100 µM and the EC50 [3] was over 100 µM. For the same compound, the IC50 (Adrenergic α1B [4]) was over 25.1 µM, the IC50 (Dopamine D1) was over 100 µM and the EC50 (Glucocorticoid Receptor) was over 100 µM.
